Converted amounts (≈) assume the structure as drawn. “Also recorded” adds a separate entry of the source. Read-outs that look alike come from different tables or passages of the source.
What was measured:
AA-2 or MT-2 cells = test: Cell count and viability of AA-2 and MT-2 cells; type: cell-based, human; conditions: for effect on cell proliferation: 0.1 mM 5-I-6-ABP
Method: The effects of 5-I-6-ABP treatment of AA-2 and MT-2 cells was directly analyzed by cell count and viability tests including cloning efficiency and trypan blue uptake. The AA2 or MT-2 cell culture having initial cell count per well 0.5×10^5 was submitted to treatment with 3 mM of 6-ABP and or with 0.1 mM of 5-I-6-ABP and compared to untreated cell culture. The cells were counted 4 days after the treatment with 5-I-6-ABP and 6-ABP.

virus = test: Antiviral effect in in vitro experiments at 0.35 mM; type: cell-based; conditions: 100 mg/kg corresponding to 0.35 mM
Rat-1 cells = test: DNA synthesis ([3H]deoxyadenosine incorporation) in Rat-1 cells; type: cell-based; conditions: 72 h, N=5
Description: (§1) In this study, the following cell lines were used. Cell line CG I, a non-tumorigenic hybrid of HeLa cells with normal human fibroblasts, and its is tumorigenic revertant counterpart, CG1 III, as described in Science, 215:252 (1982). These cells were obtained from UC Irvine. […] HEp-2 human epidermoid carcinoma cells were provided by Dr. L. Aurelian (University of Maryland). E-Ras cells were-obtained from University of Cincinnati and represent an endothelial cell line transfected with pSV2neo plasmid as described in Proc. Natl. Acad. Sci., 76:1373 (1979). This cell line contains several copies of the activated human Ha-ras oncogene.
(§2) Cells were seeded to 2 cm^2 wells of Falcon tissue culture plates at a density of 6000±650 cells per well. Inhibitors were added to the seeding suspensions from stock solutions of 100 mM 6-ABP in water or 50 mM 5-1-6-ABP in dimethylsulfoxide (DMSO). […] Growth media were Dulbeccos MEM (lines #1 and 2), and Dulbeccols Modified Eagle's Medium, containing 10% fetal bovine serum and penicillin (100 μg/ml) plus streptomycin (100 μg/ml). […] Cells were then lysed in 500 μl of 0.06M NaOH and the acid precipitable radioactivity was determined.

HSV = HSV replication in infected cell culture; type: cell-based
Method: Herpes simplex virus (HSV) type 1 and 2 (F and G strains, respectively) were grown in HEp-2 cells and titered by plaque assay under liquid overlay as described in Proc. Natl. Acad. Sci., 83:2787 (1986). Virus titers for CMV are expressed as the highest dilution that causes 50% cytopathic effect (TCID50). Virus titers for HSV-1 and HSV-2 are expressed as […] per ml. HIV titers are expressed as syncytial forming units (SFU per ml), assayed on MT2 cells. Vero, HEp-2 or MRC-5 cells are exposed to various concentrations from 0.1 to 10 mM of 5-I-6-ABP in various time intervals before infecting them with HSV-1 or HSV-2 (5-10 PFU/cell). Virus titers are determined 24 hours later.

HIV [1] = test: Anti-HIV activity, overall comparison with 6-ABP; type: cell-based
[2] = Toxicity after intraperitoneal administration; type: in vivo, rat
Method: Toxicological tests administering 5-I-6-ABP to mice were performed under the following conditions.
[…] […] […] In in vitro experiments, it was shown that at the concentration 100 mg/kg corresponding to 0.35 mM, the antiviral effect is maximal.

GC1 III cells = test: DNA synthesis ([3H]deoxyadenosine incorporation) in CG1 III cells; type: cell-based; conditions: Homo sapiens, 72 h, N=5
Description: as §1, §2

ADPRT [3] = molecular target: T1, ADPRT (Bos taurus, UniProt P18493); test: Inhibition of ADPRT / binding to ADPRT (I50, Ki); type: biochemical
T1 sequence (P18493 whole entry): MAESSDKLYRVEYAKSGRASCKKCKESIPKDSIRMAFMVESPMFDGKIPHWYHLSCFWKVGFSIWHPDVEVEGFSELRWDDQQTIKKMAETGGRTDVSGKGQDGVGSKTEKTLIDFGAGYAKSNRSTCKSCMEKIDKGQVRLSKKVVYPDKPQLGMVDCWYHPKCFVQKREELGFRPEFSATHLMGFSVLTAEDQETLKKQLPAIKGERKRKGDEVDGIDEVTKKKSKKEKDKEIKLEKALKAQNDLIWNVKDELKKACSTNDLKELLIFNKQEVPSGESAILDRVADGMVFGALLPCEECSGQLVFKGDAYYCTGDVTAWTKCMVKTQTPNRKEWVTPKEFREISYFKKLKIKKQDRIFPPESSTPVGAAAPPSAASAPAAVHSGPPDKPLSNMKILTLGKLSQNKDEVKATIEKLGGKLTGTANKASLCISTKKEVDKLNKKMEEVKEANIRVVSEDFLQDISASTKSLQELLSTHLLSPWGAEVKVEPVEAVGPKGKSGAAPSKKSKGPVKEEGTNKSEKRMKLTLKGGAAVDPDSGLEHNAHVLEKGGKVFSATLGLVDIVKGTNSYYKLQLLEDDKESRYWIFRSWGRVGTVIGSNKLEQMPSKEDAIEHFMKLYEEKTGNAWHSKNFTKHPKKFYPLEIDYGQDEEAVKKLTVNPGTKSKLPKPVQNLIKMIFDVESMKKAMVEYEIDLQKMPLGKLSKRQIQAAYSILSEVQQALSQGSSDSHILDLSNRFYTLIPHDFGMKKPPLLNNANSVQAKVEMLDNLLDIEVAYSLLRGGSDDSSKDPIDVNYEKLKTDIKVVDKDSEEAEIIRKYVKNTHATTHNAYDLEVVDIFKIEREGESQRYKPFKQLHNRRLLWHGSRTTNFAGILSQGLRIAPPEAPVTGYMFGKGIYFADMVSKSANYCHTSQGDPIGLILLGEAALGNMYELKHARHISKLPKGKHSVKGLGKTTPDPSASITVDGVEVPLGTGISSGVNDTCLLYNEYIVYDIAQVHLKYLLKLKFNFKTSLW
Description: Their biological action spectrum is nearly the same as that of 6-ABP, except that their potency is about 10-50 times greater. Such potency is particularly well documented in case of 5-I-6-ABP against malignant cell proliferation in cell cultures. […] This effectivity is 10-20 times higher than 6-ABP.
The 6-amino group of 5-I-6-ABP is rapidly oxidized intracellularly to 5-I-6-NOBP which, by binding to the Zn^2+ -finger domain of ADPRT, destabilizes the tightly chelated Zn^2+ by the oxidation of the thiol groups in the Zn^2+ finger polypeptide, thus ejecting Zn^2+. In this way, 5-I-6-ABP effectively inactivates the ADPR-forming activity of this protein and converts it to a DNA binding protein that reacts with "internal domains" of certain double stranded DNA (Biochemistry, 28:5670 (1989); Biochem. Biophys. Res. Commun., 167:842 (1990)). These DNA domains include abnormally replicating DNA structures in tumorigenic or proliferative cells and in viral DNAs, probably at the integration sites.

E-Ras cells = test: DNA synthesis ([3H]deoxyadenosine incorporation) in E-Ras cells; type: cell-based; conditions: 72 h, N=5
Description: as §1, §2

[4] = Passage of blood brain barrier; conditions: in vivo
other enzymes = test: Specificity towards other enzymes
HEp-2 cells = test: DNA synthesis ([3H]deoxyadenosine incorporation) in HEp-2 cells; type: cell-based; conditions: Homo sapiens, 72 h, N=5, read-out: % Inhibition of DNA synthesis
Description: as §1, §2

HIV [5] = test: Cytopathogenic effect of HIV on AA-2 cells; type: cell-based
Stability in solution = type: physicochemical
Description: 5-I-6-ABP, is a reasonably soluble molecule. It can form approximately 0. […] Such solution would be reasonably stable for use as an intravenous infusion formulation. The parenteral route of administration seems to be the most likely effective mode of administration against cancer or HIV infections at any stage of the disease. […] 5-I-6-ABP is most probably also effective for treatment of AIDS related Kaposi's sarcoma of inner organs. Properly formulated, it will also effect skin disorders. The color of the compound in the solid state depends on particle size. Large crystals are a very deep brown, small crystals, a medium brown, and when pulverized, the material in all cases is orange-colored.

[6] = test system: malignant cell proliferation; test: Malignant cell proliferation / cytostatic activity in cell cultures, overall; type: cell-based; conditions: for potency relative to 6-ABP: biological action spectrum
Description: as §1
Cells were seeded to 2 cm^2 wells of Falcon tissue culture plates at a density of 6000±650 cells per well. Inhibitors were added to the seeding suspensions from stock solutions of 100 mM 6-ABP in water or 50 mM 5-1-6-ABP in dimethylsulfoxide (DMSO). […] Growth media were Dulbeccos MEM (lines #1 and 2), and Dulbeccols Modified Eagle's Medium, containing 10% fetal bovine serum and penicillin (100 μg/ml) plus streptomycin (100 μg/ml). After incubation for 72 hours at 37° C. in a 5% CO2 humidified atmosphere, incorporation of [^3 H] deoxyadenosine (ICN, 18 Ci/mmol) into DNA was tested as follows: [^3 H] deoxyadenosine (450,000 dpm in 40 μl) of medium was added per well (each containing 600 μl of medium) and incubation at 37° C. was continued for 1 hour, followed by removal of the medium and rinsing of the wells 3 times with phosphate-buffered saline. Cells were then lysed in 500 μl of 0.06M NaOH and the acid precipitable radioactivity was determined.

HIV [7] = test: HIV replication by p24 formation (ELISA) in cell culture; type: cell-based
[8] = Metabolic conversion in liver / intracellular oxidation and cell penetration
14C cells = test: DNA synthesis ([3H]deoxyadenosine incorporation) in 14C cells; type: cell-based; conditions: Rattus norvegicus, 72 h, N=5, read-out: % Inhibition of DNA synthesis
Description: as §1, §2

CMV = CMV replication in infected cell culture; type: cell-based
CG1 I cells = test: DNA synthesis ([3H]deoxyadenosine incorporation) in CG1 I cells; type: cell-based; conditions: Homo sapiens, 72 h, N=5
Description: as §1, §2

HIV [9] = test: Cytopathogenic effect of HIV on MT-2 cells; type: cell-based
Solubility = type: physicochemical; conditions: 25° C.
Description: The color of the compound in the solid state depends on particle size. Large crystals are a very deep brown, small crystals, a medium brown, and when pulverized, the material in all cases is orange-colored.

HIV [10] = test: Inhibition of syncytia formation by HIV in MT-2 cells; type: cell-based
HIV [11] = test: HIV proliferation in human lymphoblasts; type: cell-based
Description: The HIV isolates used in these experiments are isolated from the blood of infected patients. After isolation, HIV infection is established in CEM cells, and these infected cells are used to produce a stock of HIV virus that is titered to measure the concentration of tissue culture infective doses (TCID).
The cells are placed in culture in medium containing IL-2, but in the absence of additional 5-I-6-ABP, and monitored at 6 days and 12 days for the production of HIV-p24 core antigen, or for measurements of particulate reverse transcriptase.
HIV p24 antigen is measured by ELISA, with a cutoff of 5 pgm/ml. Particulate reverse transcriptase is measured by centrifuging down free virus from tissue culture fluids, lysing HIV in a buffer containing detergent, magnesium, H3-labelled dTTP and poly rA.oligo dT primer, incubating for 1 hour, and measuring precipitable radioactivity, and is expressed as cpm per volume of HIV-containing medium.

ADPRT [12] = molecular target: T1, ADPRT; conditions: literature; cited from earlier work
[13] = literature; cited from earlier work
human lymphoblasts = test: Lymphoblast viability; type: cell-based
Method: The viability of lymphoblasts is measured by incubating the cells exposed to IL-2, HIV and to 6-ABP with H3-thymidine for 6 hours on the sixth day of culture and determining the amount of cpm incorporated per 100,000 cells placed in culture.

## Nc1ccc2oc(=O)ccc2c1I [5-I-6-ABP, 5-iodo-6-amino-1,2-benzopyrone]
AA-2 or MT-2 cells
  cytotoxicity: does not involve cytotoxicity
AA-2 or MT-2 cells; 3 mM 6-ABP, 4 days
  effect on cell proliferation: inhibitory effect on cell proliferation
virus
  antiviral effect: maximal
Rat-1 cells; 5-I-6-ABP 0.05 mM
  inhibition at 50 µM: -35.6%
HSV
  HSV inhibition: specific, potent and non-toxic inhibitor
HSV; Vero, HEp-2 or MRC-5 cells, 0.1 to 10 mM
  effect of cell type on inhibitory effect: not affected by cell type
HIV [1]
  anti-HIV activity: specific, potent and non-toxic inhibitor; also recorded: highly effective against HIV
  effectivity against HIV relative to 6-ABP: 10-20 times
  inhibition of HIV replication, reversibility: temporary, reversible
[2]; chronic administration, 100 and 500 mg/kg, several weeks
  toxic effects, chronic: did not show any toxic effects
[2]; rats, i.p., 100 and 59 mg/kg in DMSO once a day, four days
  toxic effects, subacute: no apparent toxic effects
GC1 III cells; 5-I-6-ABP 0.05 mM
  inhibition at 50 µM: -64.4%
ADPRT [3]
  IC50: 19 µM
  Ki: 2 µM
  inhibition of / binding to ADPRT: potent inhibitor of ADPRT; also recorded: much tighter binding
ADPRT [3]; vs non-iodinated 6-ABP
  times more potent than 6-ABP (on a concentration basis): about 10 times
E-Ras cells; 5-I-6-ABP 0.05 mM
  inhibition at 50 µM: -81.8%
[4]
  blood brain barrier passage: appears to cross the blood brain barrier
Other enzymes
  activation or inhibition of other enzymes: no other enzymes are activated or inhibited
HEp-2 cells; 5-I-6-ABP 0.05 mM
  percent change in DNA synthesis vs control at 50 µM: -52.4%
HIV [5]
  cytopathogenic effect of HIV, effectiveness relative to 6-ABP: nearly as effective
Stability in solution; 25° C.
  stability in water, ethanol and DMSO: stable in all of these solvents
Stability in solution; about 0.4 mM in water, pH 7.2-7.9, room temperature
  stability of aqueous solution: stable for months at room temperature
Stability in solution; boiling water
  stability with respect to boiling water: stable with respect to boiling water
Stability in solution; water, kept in the dark, months at room temperature, read-out: decomposition in aqueous solution
  degraded: < 0.1%
[6]
  cellular toxicity of cytostatic effect: do not involve cellular toxicity
[6]; 6 cell lines, Table 1
  replication of tumorigenic cell types: profoundly inhibited
[6]; vs 6-ABP
  potency relative to 6-ABP: 10-50 times
  antitumor activity relative to 6-ABP: at least 10 times
General toxicity
  toxicity: completely nontoxic; also recorded: absence of toxicity
HIV [7]
  p24 protein formation, effect relative to 3 mM 6-ABP: nearly as effective
  suppressing effect on p24 generation: almost equivalent suppressing effect on p24 generation
[8]; most mammalian cells, pH 7.2-7.4
  cell penetration: to a limited degree
[8]; to 5-I-6-NOBP
  intracellular oxidation at 6-amino position: rapid oxidation
[8]; to 5-I-6-nitroBP, per os
  metabolic conversion in the liver: rapid conversion in the liver
14C cells; 5-I-6-ABP 0.05 mM
  percent change in DNA synthesis versus control at 50 µM: -69.2%
CMV
  CMV inhibition: specific, potent and non-toxic inhibitor; also recorded: effectively inhibits CMV growth
CG1 I cells; 5-I-6-ABP 0.05 mM
  inhibition at 50 µM: -7.6%
HIV [9]
  cytopathogenic effect of HIV, effectiveness relative to 6-ABP: nearly as effective
Solubility; water, read-out: solubility in water (saturated)
  solubility: 0.37 mM (≈ 106 µg/mL)
Solubility; organic solvent or mixture, DMSO, read-out: solubility in DMSO (saturated)
  solubility: 1900 mM (≈ 545000 µg/mL)
Solubility; organic solvent or mixture, ethanol, read-out: solubility in ethanol (saturated)
  solubility: 4.7 mM (≈ 1350 µg/mL)
HIV [10]
  inhibition of syncytia formation: complete
  inhibition of syncytia formation relative to 3 mM 6-ABP: only slightly less inhibitory
HIV [11]
  inhibition of HIV, duration: temporary and reversible

## O=c1ccc2ccccc2o1 [1,2-benzopyrone (coumarin), 1,2-benzopyrone]
ADPRT [12]
  ADPRT ligand: inhibitory ligand

## Nc1ccc2oc(=O)ccc2c1 [6-ABP, 6-amino-1,2-benzopyrone, reference compound]
AA-2 or MT-2 cells
  cytotoxicity: does not involve cytotoxicity
AA-2 or MT-2 cells; 3 mM 6-ABP, 4 days
  effect on cell proliferation: inhibitory effect on cell proliferation
  toxic effects in viability test: no evidence of toxic effects
Rat-1 cells; 6-ABP 0.5 mM
  inhibition at 500 µM: -30.5%
GC1 III cells; 6-ABP 0.5 mM
  inhibition at 500 µM: -37.5%
ADPRT [3]
  IC50: 125 µM
  Ki: 47 µM
E-Ras cells; 6-ABP 0.5 mM
  inhibition at 500 µM: -69.5%
HEp-2 cells; 6-ABP 0.5 mM
  percent change in DNA synthesis vs control at 500 µM: -47.6%
ADPRT [12]
  ADPRT ligand: specifically bind to ADPRT
[6]; 500 μM 6-ABP vs 50 μM 5-I-6-ABP, vs 500 μM as printed
  effectivity of 500 μM 6-ABP compared with 5-I-6-ABP: the same effectivity
[13]
  sedative, hypnotic, hypothermal, antipyretic, hypotensive, adrenolytic action: No significant action
Human lymphoblasts
  cell damage or death: without detectable cell damage or death
14C cells; 6-ABP 0.5 mM
  percent change in DNA synthesis versus control at 500 µM: -53.3%
CG1 I cells; 6-ABP 0.5 mM
  inhibition at 500 µM: -19.8%
HIV [10]
  inhibition of syncytia formation: complete

## O=Nc1ccc2oc(=O)ccc2c1I [5-I-6-NOBP, 5-iodo-6-nitroso-1,2-benzopyrone]
ADPRT [3]
  inhibition of / binding to ADPRT: binds with high affinity to zinc-fingers of enzyme ADPRT; also recorded: potent inhibitor of ADPRT
[6]; vs 6-ABP
  potency relative to 6-ABP: 10-50 times

## O=c1ccc2c(I)c([N+](=O)[O-])ccc2o1 [5-I-6-nitro-NBP, 5-iodo-6-nitro-1,2-benzopyrone]
[8]; nitro oxidation product formed in liver
  biochemical activity: inactive
